Data published in US20010022976A1, “Immunosuppressive and tumour-suppressive bone marrow factor” (London Health Sciences Centre, priority 1995, published 2001).

Columns and labels:
[1] = system: cAMP-dependent protein kinase (PKA); assay: cAMP-dependent protein kinase (PKA) activity in digitonin-permeabilized Jurkat cells; format: cell-based; settings: 5× rat C18 purified Reptimed or 1 μm isoproterenol, basal activity 9 +/−1
Protocol: Cyclic AMP-dependent protein kinase (PKA) activity was assayed in digitonin-permeabilized cells. Jurkat cells were centrifuged at 300×g for 15 min and resuspended in Hanks' balanced salt solution without calcium and with 0.5 mM EDTA, 1 mM magnesium sulfate, and 1 mg/100 ml digitonin. Jurkat cells were incubated for 15 min at 4° C. and then washed twice as above in Hanks' solution without digitonin and finally resuspended at a final concentration of 10 to 20×10^6 cells/ml for assay. Cells were either untreated, treated with 5×rat C18 purified […], or with 1 μm isoproterenol, or with both 5[…] and 1 μm isoproterenol. PKA activity was assessed by the phosphorylation of the synthetic PKA substrate (Kemptide-Sigma Chemical Corporation, St. Louis, Mo.). Phosphorylated substrate was separated by adherence to phosphocellulose. After six washes in phosphoric acid, radioactivity on the phosphocellulose strips was assessed by scintillation spectroscopy.

Na—K—Cl cotransport = Na—K—Cl cotransport measured by 86Rb uptake in Jurkat cells; format: cell-based; settings: 1 μm isoproterenol, p<0.001
Protocol: Jurkat cells were centrifuged for 15 min at 300×g and resuspended in Dulbecco's modified Eagle's medium (DMEM; ionic composition: 1.8 mM CaCl2, 5.4 mM KCl, 0.8 mM MgSO4, 110 mM NaCl, 0.9 mM NaH2PO4, 0.25 µM Fe(NO3)3; GIBCO, Grand Island, N.Y.) with 10 mM N-2 hydroxyethylpiperazine-N′-2 ethanesulfonic acid (HEPES), pH 7.4 at a final concentration of 5-10×10^6 cells/ml. […] Assays were stopped by aliquoting 100 μl of the reaction mixture into chilled microcentrifuge tubes prefilled with 100 μl of 3 mM BaCl2 and 0.1 mM of ouabain solution layered over 100 μl of a 3:1 of mazola oil to n-butylphthalate mixture. Cells were rapidly sedimented through the oil interface (1 min at 15,000 g). Centrifuge tube tips containing the tip pellets were clipped in the vials and radioactivity was determined by scintillation spectroscopy (Beckman LS 6000).

CC(C)NCC(O)c1ccc(O)c(O)c1 (centres unmarked) [isoproterenol]
PKA activity [1]: significant increase
Na—K—Cl cotransport (86Rb uptake) (Na—K—Cl cotransport): 38 +/−8 % of control
